Like-named read-outs stand apart in the source and are kept apart here.
Biological target: TRPV1 (Rattus norvegicus (Rat), UniProt O35433)
Assay: Ca2+ fluorescence measurements in cultured rat dorsal root ganglia neurons (capsaicin-induced calcium uptake)
Format: cell-based
Settings: for inhibition at 0.3 µM: DRG neuron
[1] = Table 1, formula IA-C, 300 nM against calcium uptake induced by 30 nM capsaicin, rat DRG neurons, read-out: % inhibition at 300 nM
[2] = capsaicin-induced calcium uptake, rat DRG neurons, read-out: inhibition of the calcium uptake
[3] = 300 nM, rat DRG neurons, read-out: abolition of capsaicin response at 300 nM
[4] = Table 1, against capsaicin-evoked [Ca2+]i mobilization, rat DRG neurons, read-out: IC50

TRPV1, sequence (O35433 whole entry): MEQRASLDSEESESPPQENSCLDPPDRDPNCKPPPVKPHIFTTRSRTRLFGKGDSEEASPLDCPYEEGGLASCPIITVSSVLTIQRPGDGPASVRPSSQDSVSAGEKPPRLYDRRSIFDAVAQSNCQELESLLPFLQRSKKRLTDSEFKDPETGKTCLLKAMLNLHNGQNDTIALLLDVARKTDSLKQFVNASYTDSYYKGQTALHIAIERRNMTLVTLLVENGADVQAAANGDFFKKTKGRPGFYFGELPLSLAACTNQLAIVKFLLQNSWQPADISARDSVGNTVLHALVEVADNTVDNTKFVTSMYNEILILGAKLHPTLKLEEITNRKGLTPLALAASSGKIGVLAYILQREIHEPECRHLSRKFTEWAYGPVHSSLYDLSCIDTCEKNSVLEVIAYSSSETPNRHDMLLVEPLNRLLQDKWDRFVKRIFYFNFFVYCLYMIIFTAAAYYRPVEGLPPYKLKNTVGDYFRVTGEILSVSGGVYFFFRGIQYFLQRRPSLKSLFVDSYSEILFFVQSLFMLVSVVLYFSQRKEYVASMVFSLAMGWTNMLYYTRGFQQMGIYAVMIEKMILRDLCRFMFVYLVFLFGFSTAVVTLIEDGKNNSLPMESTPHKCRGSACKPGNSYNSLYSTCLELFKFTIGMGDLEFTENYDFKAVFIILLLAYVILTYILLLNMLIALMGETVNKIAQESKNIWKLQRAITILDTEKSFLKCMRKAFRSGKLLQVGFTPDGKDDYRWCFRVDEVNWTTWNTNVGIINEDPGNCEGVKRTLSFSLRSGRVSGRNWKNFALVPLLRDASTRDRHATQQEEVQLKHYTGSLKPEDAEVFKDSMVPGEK

SMILES | inhibition at 0.3 µM [1] [%] | other results
COc1cc(CNC(=O)CCCC/C=C/C(C)C)ccc1O [Capsaicin, capsaicin, reference compound] | – | dorsal root ganglia neurons with increase in [Ca2+] (capsaicin 0.3 μM): 95%
O=C(NCc1ccc(C(F)(F)F)cc1N1CCOCC1)Nc1cccc2[nH]c(=O)[nH]c12 [Example 7, 1-(4-(trifluoromethyl)-2-(4-morpholino)benzyl)-3-(2,3-dihydro-2-oxo-1H-benzo[d]imidazol-4-yl)urea] | 33 | –
O=C(NCc1ccc(C(F)(F)F)cc1-n1cncn1)Nc1cccc2[nH]c(=O)[nH]c12 [Example 8, 1-(4-(trifluoromethyl)-2-(1H-1,2,4-triazol-1-yl)benzyl)-3-(2,3-dihydro-2-oxo-1H-benzo[d]imidazol-4-yl)urea] | 2 | –
O=C(NCc1ccc(F)cc1)Nc1cccc2[nH]c(=O)[nH]c12 [Example 9, 1-(4-fluorobenzyl)-3-(2,3-dihydro-2-oxo-1H-benzo[d]imidazol-4-yl)urea] | 18 | –
O=C(NCc1ccc(Cl)cc1)Nc1cccc2[nH]c(=O)[nH]c12 [Example 10, 1-(4-chlorobenzyl)-3-(2,3-dihydro-2-oxo-1H-benzo[d]imidazol-4-yl)urea] | 89 | inhibition at 0.3 µM [2]: > 80%; IC50 [4]: 79 nM
CN(C)c1cc(Cl)ccc1CNC(=O)Nc1cccc2[nH]c(=O)[nH]c12 [Example 11, 1-(4-chloro-2-(dimethylamino)benzyl)-3-(2,3-dihydro-2-oxo-1H-benzo[d]imidazol-4-yl)urea] | 82 | inhibition at 0.3 µM [2]: > 80%; IC50 [4]: 12 nM
CN(C)c1ccc(CNC(=O)Nc2cccc3[nH]c(=O)[nH]c23)cc1 [Example 14, 1-(4-(dimethylamino)benzyl)-3-(2,3-dihydro-2-oxo-1H-benzo[d]imidazol-4-yl)urea] | 32 | –
O=C(NCc1ccc(N2CCCC2)cc1)Nc1cccc2[nH]c(=O)[nH]c12 [Example 15, 1-(4-(pyrrolidin-1-yl)benzyl)-3-(2,3-dihydro-2-oxo-1H-benzo[d]imidazol-4-yl)urea] | 54 | –
O=C(NCc1ccc(N2CCCCC2)cc1)Nc1cccc2[nH]c(=O)[nH]c12 [Example 16, 1-(4-(piperidin-1-yl)benzyl)-3-(2,3-dihydro-2-oxo-1H-benzo[d]imidazol-4-yl)urea] | 86 | inhibition at 0.3 µM [2]: > 80%
Cc1ccc(CNC(=O)Nc2cccc3[nH]c(=O)[nH]c23)cc1 [Example 17, 1-(4-methylbenzyl)-3-(2,3-dihydro-2-oxo-1H-benzo[d]imidazol-4-yl)urea] | 44 | –
Cc1ccc(CNC(=O)Nc2cccc3[nH]c(=O)[nH]c23)c(N(C)C)c1 [Example 18, 1-(2-(dimethylamino)-4-methylbenzyl)-3-(2,3-dihydro-2-oxo-1H-benzo[d]imidazol-4-yl)urea] | 54 | –
Cc1ccc(CNC(=O)Nc2cccc3[nH]c(=O)[nH]c23)c(N2CCCCC2)c1 [Example 19, 1-(4-methyl-2-(piperidin-1-yl)benzyl)-3-(2,3-dihydro-2-oxo-1H-benzo[d]imidazol-4-yl)urea] | 99 | inhibition at 0.3 µM [3]: ~100%; inhibition at 0.3 µM [2]: > 80%
O=C(NCc1ccncc1)Nc1cccc2[nH]c(=O)[nH]c12 [Example 20, 1-(2,3-dihydro-2-oxo-1H-benzo[d]imidazol-4-yl)-3-((pyridin-4-yl)methyl)urea] | 18 | –
O=C(NCc1ccc(Cl)nc1)Nc1cccc2[nH]c(=O)[nH]c12 [Example 21, 1-((6-chloropyridin-3-yl)methyl)-3-(2,3-dihydro-2-oxo-1H-benzo[d]imidazol-4-yl)urea] | 79 | –
O=C(NCc1ccc(Cl)cc1N1CCC(O)C1)Nc1cccc2[nH]c(=O)[nH]c12 (centres unmarked) [Example 22, 1-(4-chloro-2-(3-hydroxypyrrolidin-1-yl)benzyl)-3-(2,3-dihydro-2-oxo-1H-benzo[d]imidazol-4-yl)urea] | 48 | –
O=C(NCc1ccc(C(F)(F)F)cc1)Nc1cccc2[nH]c(=O)oc12 [Example 34, 1-(4-(trifluoromethyl)benzyl)-3-(2,3-dihydro-2-oxobenzo[d]oxazol-7-yl)urea] | 19 | –
O=C(NCc1ccc(C(F)(F)F)cc1N1CCCC1)Nc1cccc2[nH]c(=O)oc12 [Example 35, 1-(4-(trifluoromethyl)-2-(pyrrolidin-1-yl)benzyl)-3-(2,3-dihydro-2-oxobenzo[d]oxazol-7-yl)urea] | 90 | inhibition at 0.3 µM [2]: > 80%
O=C(NCc1ccc(C(F)(F)F)cc1N1CCCCC1)Nc1cccc2[nH]c(=O)oc12 [Example 36, 1-(4-(trifluoromethyl)-2-(piperidin-1-yl)benzyl)-3-(2,3-dihydro-2-oxobenzo[d]oxazol-7-yl)urea] | 100 | inhibition at 0.3 µM [3]: ~100%; inhibition at 0.3 µM [2]: > 80%
O=C(NCc1ccc(C(F)(F)F)nc1N1CCCC1)Nc1cccc2[nH]c(=O)[nH]c12 [Example 39, 1-(2-oxo-1,3-dihydrobenzimidazol-4-yl)-3-[[2-pyrrolidin-1-yl-6-(trifluoromethyl)-3-pyridyl]methyl]urea] | – | abolition of capsaicin response at 300 nM (300 nM, rat DRG neurons): around 100%; % inhibition at 300 nM (Table 1, formula IA-C, 300 nM against calcium uptake induced by 30 nM capsaicin, rat DRG neurons): 98%; IC50 [4]: 9.5 nM; inhibition of the calcium uptake (capsaicin-induced calcium uptake, rat DRG neurons): more than 80%
Cc1ccc(CNC(=O)Nc2cccc3[nH]c(=O)[nH]c23)c(N2CCCCC2)n1 [Example 40, 1-[[6-methyl-2-(1-piperidyl)-3-pyridyl]methyl]-3-(2-oxo-1,3-dihydrobenzimidazol-4-yl)urea] | 52 | –
O=C(NCc1ccc(C(F)(F)F)cn1)Nc1cccc2[nH]c(=O)[nH]c12 [Example 41, 1-(2-oxo-1,3-dihydrobenzimidazol-4-yl)-3-[[5-(trifluoromethyl)-2-pyridyl]methyl]urea] | 88 | inhibition at 0.3 µM [2]: > 80%
O=C1COc2cccc(NC(=O)NCc3ccc(C(F)(F)F)cc3)c2N1 [Example 42, 1-(4-(trifluoromethyl)benzyl)-3-(3,4-dihydro-3-oxo-2H-benzo[b][1,4]oxazin-5-yl)urea] | 30 | –
O=C1COc2cccc(NC(=O)NCc3ccc(C(F)(F)F)cc3N3CCCC3)c2N1 [Example 43, 1-(4-(trifluoromethyl)-2-(pyrrolidin-1-yl)benzyl)-3-(3,4-dihydro-3-oxo-2H-benzo[b][1,4]oxazin-5-yl)urea] | 23 | –
O=C1COc2cccc(NC(=O)NCc3ccc(C(F)(F)F)cc3N3CCCCC3)c2N1 [Example 44, 1-(4-(trifluoromethyl)-2-(piperidin-1-yl)benzyl)-3-(3,4-dihydro-3-oxo-2H-benzo[b][1,4]oxazin-5-yl)urea] | 47 | –

Now from value to compound, other results behind:

inhibition at 0.3 µM [1] [%] | SMILES | other results
28 | O=C(NCc1ccc(C(F)(F)F)cc1F)Nc1cccc2[nH]c(=O)[nH]c12 [Example 2, 1-(2-fluoro-4-(trifluoromethyl)benzyl)-3-(2,3-dihydro-2-oxo-1H-benzo[d]imidazol-4-yl)urea] | –
93 | O=C(NCc1ccc(C(F)(F)F)cc1Cl)Nc1cccc2[nH]c(=O)[nH]c12 [Example 3, 1-(2-chloro-4-(trifluoromethyl)benzyl)-3-(2,3-dihydro-2-oxo-1H-benzo[d]imidazol-4-yl)urea] | inhibition at 0.3 µM [2]: > 80%
100 | CN(C)c1cc(C(F)(F)F)ccc1CNC(=O)Nc1cccc2[nH]c(=O)[nH]c12 [Example 4, 1-(2-(dimethylamino)-4-(trifluoromethyl)benzyl)-3-(2,3-dihydro-2-oxo-1H-benzo[d]imidazol-4-yl)urea] | inhibition at 0.3 µM [3]: ~100%; inhibition at 0.3 µM [2]: > 80%; IC50 [4]: 4.07 nM; IC50 (rat DRG neurons, read-out: IC50 against capsaicin-evoked [Ca2+]i mobilization): 4.07 nM
40 | O=C(NCc1ccc(C(F)(F)F)cc1)Nc1cccc2oc(=O)[nH]c12 [Example 24, 1-(4-(trifluoromethyl)benzyl)-3-(2,3-dihydro-2-oxobenzo[d]oxazol-4-yl)urea] | –
40 | O=C(NCc1ccc(C(F)(F)F)cc1F)Nc1cccc2oc(=O)[nH]c12 [Example 25, 1-(2-fluoro-4-(trifluoromethyl)benzyl)-3-(2,3-dihydro-2-oxobenzo[d]oxazol-4-yl)urea] | –
55 | O=C(NCc1ccc(C(F)(F)F)cc1Cl)Nc1cccc2oc(=O)[nH]c12 [Example 26, 1-(2-chloro-4-(trifluoromethyl)benzyl)-3-(2,3-dihydro-2-oxobenzo[d]oxazol-4-yl)urea] | –
45 | O=C(NCc1ccc(F)cc1C(F)(F)F)Nc1cccc2oc(=O)[nH]c12 [Example 27, 1-(4-fluoro-2-(trifluoromethyl)benzyl)-3-(2,3-dihydro-2-oxobenzo[d]oxazol-4-yl)urea] | –
40 | O=C(NCc1ccc(Cl)cc1C(F)(F)F)Nc1cccc2oc(=O)[nH]c12 [Example 28, 1-(4-chloro-2-(trifluoromethyl)benzyl)-3-(2,3-dihydro-2-oxobenzo[d]oxazol-4-yl)urea] | –
8 | CN(C)c1cc(C(F)(F)F)ccc1CNC(=O)Nc1cccc2oc(=O)[nH]c12 [Example 29, 1-(2-(dimethylamino)-4-(trifluoromethyl)benzyl)-3-(2,3-dihydro-2-oxobenzo[d]oxazol-4-yl)urea] | –
44 | O=C(NCc1ccc(C(F)(F)F)cc1N1CCCC1)Nc1cccc2oc(=O)[nH]c12 [Example 30, 1-(4-(trifluoromethyl)-2-(pyrrolidin-1-yl)benzyl)-3-(2,3-dihydro-2-oxobenzo[d]oxazol-4-yl)urea] | –
93 | O=C(NCc1ccc(C(F)(F)F)cc1N1CCOCC1)Nc1cccc2oc(=O)[nH]c12 [Example 32, 1-(4-(trifluoromethyl)-2-(4-morpholino)benzyl)-3-(2,3-dihydro-2-oxobenzo[d]oxazol-4-yl)urea] | inhibition at 0.3 µM [2]: > 80%
16 | O=C(NCc1ccc(Cl)cc1)Nc1cccc2oc(=O)[nH]c12 [Example 33, 1-(4-chlorobenzyl)-3-(2,3-dihydro-2-oxobenzo[d]oxazol-4-yl)urea] | –
